Experimental data: PMC4269550, “Lead Optimization of a Pyrazole Sulfonamide Series of Trypanosoma bruceiN-Myristoyltransferase Inhibitors: Identification and Evaluation of CNS Penetrant Compounds as Potential Treatments for Stage 2 Human African Trypanosomiasis” (Journal of Medicinal Chemistry, 2014)
Values joined by “and” are separate entries in the source; they are usually repeats but may differ in a detail not shown here. Equal values may be shown once. Read-outs that look alike come from different tables or passages of the source.

Legend:
[1] = in vitro; format: cell-based, human; conditions: human; read-out: MRC-5 EC50
[2] = Intrinsic clearance (Cli), mouse liver microsomes; format: in vitro ADME; conditions: Table S1, unit not given
[3] = target: T1, TbNMT (Trypanosoma brucei brucei, UniProt Q388H8); assay: NMT enzyme inhibition scintillation proximity assay (TbNMT); format: biochemical, T. brucei
T1 sequence (Q388H8 1-446): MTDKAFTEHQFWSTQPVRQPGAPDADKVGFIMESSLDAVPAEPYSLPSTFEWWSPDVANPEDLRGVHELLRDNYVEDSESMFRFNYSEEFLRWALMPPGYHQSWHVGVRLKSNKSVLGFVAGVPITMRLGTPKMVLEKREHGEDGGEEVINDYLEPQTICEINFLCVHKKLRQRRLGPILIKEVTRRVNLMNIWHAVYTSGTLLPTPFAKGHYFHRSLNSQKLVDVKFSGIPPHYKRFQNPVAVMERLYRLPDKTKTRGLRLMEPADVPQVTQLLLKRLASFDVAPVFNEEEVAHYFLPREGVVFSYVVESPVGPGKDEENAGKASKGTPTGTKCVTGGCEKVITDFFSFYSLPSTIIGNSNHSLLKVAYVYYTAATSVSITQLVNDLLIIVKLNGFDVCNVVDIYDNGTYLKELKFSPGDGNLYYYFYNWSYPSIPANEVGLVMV

[4] = test system: T. b. brucei, BSF427, VSG118; assay: Cell viability assay, trypanosome; format: cell-based
[5] = test system: MRC5, human lung fibroblast cells; assay: in vitro; format: cell-based
[6] = test system: HsNMT; format: biochemical, human; conditions: for IC50: mean of two or more determinations
[7] = mean of two or more determinations, read-out: TbNMT IC50

## Cc1nn(C)c(C)c1NS(=O)(=O)c1ccc(-c2ccnc(N3CCNCC3)c2)cc1F [compound 58]
[1]
  EC50: 0.53 µM
[2]
  Cli (mouse): < 0.5

## Cc1nn(C)c(C)c1NS(=O)(=O)c1c(F)cc(-c2ccnc(N3CCNCC3)c2)cc1F [compound 59]
[3]; [7]
  IC50: 0.004 µM
[4]
  EC50: 0.005 µM
[5]
  EC50: 4.7 µM
[2]
  Cli (mouse): < 0.5

## Cc1nn(C)c(C)c1NS(=O)(=O)c1ccc(-c2ccnc(N3CCNC(C)C3)c2)cc1 (stereo not shown) [compound 60]
[4]; Trypanosoma brucei
  EC50: 0.004 µM
[1]
  EC50: 0.79 µM

## Cc1nn(C)c(C)c1NS(=O)(=O)c1ccc(-c2ccnc(N3CCNC(c4ccccc4)C3)c2)cc1 (stereo not shown) [compound 61]
[3]
  IC50: 0.8 µM
[6]
  IC50: 2.46 µM
[6]; selectivity
  S = IC50 HsNMT/EC50 T. brucei: < 1
[4]; Trypanosoma brucei
  EC50: > 10 µM
[1]
  EC50: > 50 µM

## Cc1nn(C)c(C)c1NS(=O)(=O)c1ccc(-c2ccnc(N3CC(C)NC(C)C3)c2)cc1 (stereo not shown) [compound 62]
[4]; Trypanosoma brucei
  EC50: 0.03 µM
[1]
  EC50: 2.69 µM

## Cc1nn(C)c(C)c1NS(=O)(=O)c1ccc(-c2ccnc(N3CCNC(C(C)C)C3)c2)cc1 (stereo not shown) [compound 63]
[4]; Trypanosoma brucei
  EC50: 0.14 µM
[1]
  EC50: 8.16 µM

## Cc1nn(C)c(C)c1NS(=O)(=O)c1ccc(-c2ccnc(N3CCNC(Cc4ccccc4)C3)c2)cc1 (stereo not shown) [compound 64]
[3]
  IC50: 0.11 µM
[6]
  IC50: 1.51 µM
[6]; selectivity
  S = IC50 HsNMT/EC50 T. brucei: < 1
[4]; Trypanosoma brucei
  EC50: > 10 µM
[1]
  EC50: > 50 µM

## Cc1nn(C)c(C)c1N(C(F)F)[S+](=O)([O-])c1c(Cl)cc(CCCN2CCCN(C)CC2)cc1Cl [compound 65]
[4]; Trypanosoma brucei
  EC50: 0.0006 µM
[1]
  EC50: 0.41 µM

## Cc1nn(C)c(C)c1N(C(F)F)S(=O)(=O)c1c(Cl)cc(CCCN2CCCNCC2)cc1Cl [compound 66]
[5]
  EC50: 0.34 µM

## Cc1nn(C)c(C)c1N(C(F)F)S(=O)(=O)c1c(Cl)cc(CCCCCCn2ccnc2)cc1Cl [compound 67]
[3]
  IC50: 0.005 µM
[6]
  S = IC50 HsNMT/EC50 T. brucei: 4
  IC50: 0.14 µM
[4]; Trypanosoma brucei
  EC50: 0.035 µM
[1]
  EC50: 7.2 µM

## Cc1nn(C)c(C)c1N(C(F)F)[S+](=O)([O-])c1c(Cl)cc(CCCCCCn2ccnc2C)cc1Cl [compound 68]
[4]; Trypanosoma brucei
  EC50: 0.005 µM
[1]
  EC50: 0.91 µM

## CCc1nccn1CCCCCCc1cc(Cl)c([S+](=O)([O-])N(c2c(C)nn(C)c2C)C(F)F)c(Cl)c1 [compound 69]
[4]; Trypanosoma brucei
  EC50: 0.15 µM
[1]
  EC50: 7.7 µM

## Cc1nn(C)c(C)c1N(C(F)F)S(=O)(=O)c1c(Cl)cc(CCCCCCn2ccnc2C(C)C)cc1Cl [compound 70]
[3]
  IC50: 0.025 µM
[6]
  S = IC50 HsNMT/EC50 T. brucei: 2
  IC50: 0.5 µM
[4]; Trypanosoma brucei
  EC50: 0.27 µM
[1]
  EC50: 3.6 µM

## Cc1nn(C)c(C)c1N(C(F)F)S(=O)(=O)c1c(Cl)cc(CCCOC2CC3CCC(C2)N3C)cc1Cl (stereo not shown) [compound 71]
[3]; [7]
  IC50: 0.002 µM
[6]
  IC50: 0.062 µM
[6]; selectivity
  S = IC50 HsNMT/EC50 T. brucei: 6
[4]
  EC50: 0.01 µM
[5]
  EC50: 1.5 µM

## Cc1nn(C)c(C)c1N(C(F)F)S(=O)(=O)c1c(Cl)cc(CCCOC2CC3CCC(C2)N3C)cc1Cl (stereo not shown) [compound 72]
[6]
  IC50: 0.002 µM
[6]; selectivity
  S = IC50 HsNMT/EC50 T. brucei: 10
[4]
  EC50: 0.0002 µM
[5]
  EC50: 0.07 µM

## Cc1nn(C)c(C)c1N(C(F)F)S(=O)(=O)c1c(Cl)cc(-c2ccnc(N3CCNCC3)c2)cc1Cl [compound 74]
[4]
  EC50: 0.003 µM
[5]
  EC50: 0.14 µM

## Cc1nn(C)c(C)c1N(C(F)F)S(=O)(=O)c1c(Cl)cc(CCCOC2CC(C)(C)N(C)C(C)(C)C2)cc1Cl [compound 75]
[3]; [7]
  IC50: 0.01 µM
[6]
  IC50: 1.7 µM
[6]; selectivity
  S = IC50 HsNMT/EC50 T. brucei: 27
[4]
  EC50: 0.064 µM
[5]
  EC50: 5.3 µM

## Cc1nn(C)c(C)c1N(C(F)F)S(=O)(=O)c1c(Cl)cc(CCCOC2CCC(N(C)C)CC2)cc1Cl (stereo not shown) [compound 76]
[3]; [7]
  IC50: 0.002 µM
[6]
  IC50: 0.005 µM
[6]; selectivity
  S = IC50 HsNMT/EC50 T. brucei: 2
[4]
  EC50: 0.003 µM
[5]
  EC50: 0.57 µM

## Cc1nn(C)c(C)c1N(C(F)F)S(=O)(=O)c1c(Cl)cc(CCCCCCN2CCOCC2)cc1Cl [compound 79]
[3]; [7]
  IC50: 0.055 µM
[4]
  EC50: 0.32 µM
[5]
  EC50: 12.2 µM

## CCN(CC)CCCCCCc1cc(Cl)c(S(=O)(=O)N(c2c(C)nn(C)c2C)C(F)F)c(Cl)c1 [compound 81]
[3]; [7]
  IC50: 0.003 µM
[6]
  IC50: 0.042 µM
[6]; selectivity
  S = IC50 HsNMT/EC50 T. brucei: 3
[4]
  EC50: 0.014 µM
[5]
  EC50: 2.9 µM

## CCN(C)CCCCCCc1cc(Cl)c(S(=O)(=O)N(c2c(C)nn(C)c2C)C(F)F)c(Cl)c1 [compound 83]
[6]; selectivity
  S = IC50 HsNMT/EC50 T. brucei: 3 and 5

## Cc1nn(C)c(C)c1N(C(F)F)S(=O)(=O)c1c(Cl)cc(CCCCCCN(C)C(C)C)cc1Cl [compound 84]
[3]; [7]
  IC50: 0.003 µM
[6]
  IC50: 0.18 µM
[6]; selectivity
  S = IC50 HsNMT/EC50 T. brucei: 5
[4]
  EC50: 0.038 µM
[5]
  EC50: 5.1 µM

## Cc1nn(C)c(C)c1N(C(F)F)S(=O)(=O)c1c(Cl)cc(CCCOC[C@@H]2CCCN2)cc1Cl [compound 86]
[3]; [7]
  IC50: 0.002 µM
[6]
  IC50: 0.11 µM
[6]; selectivity
  S = IC50 HsNMT/EC50 T. brucei: 18
[4]
  EC50: 0.006 µM
[5]
  EC50: 3.3 µM

## Cc1nn(C)c(C)c1N(C(F)F)S(=O)(=O)c1c(Cl)cc(CCCOC[C@H]2CCCN2)cc1Cl [compound 87]
[3]; [7]
  IC50: 0.003 µM
[6]
  IC50: 0.033 µM
[6]; selectivity
  S = IC50 HsNMT/EC50 T. brucei: 7
[5]
  EC50: 3.2 µM

## Cc1nn(C)c(C)c1N(C(F)F)S(=O)(=O)c1c(Cl)cc(CCCOC[C@@H]2CCCCN2)cc1Cl [compound 88]
[3]; [7]
  IC50: 0.007 µM
[6]
  IC50: 0.84 µM
[6]; selectivity
  S = IC50 HsNMT/EC50 T. brucei: 10
[4]
  EC50: 0.087 µM
[5]
  EC50: 5.3 µM
